Here are results for 20 compounds from ChEMBL document CHEMBL3046657, “Quantum chemical QSAR study of flavones and their radical-scavenging activity” (Med Chem Res, 2007).

As usually defined, the inhibition is the relative decrease from the control value, in per cent.

The test system of this assay is Radical scavenging activity. Briefly: Antioxidant activity assessed as inhibition of DPPH radical […] at 33 uM after 5 min by spectrophotometric analysis. The format is functional. (In general: The DPPH test is a chemical assay of radical scavenging.)
With `O=C1c2ccc(O)cc2O[C@H](c2ccc(O)c(O)c2)[C@H]1O`, the inhibition is 91.9%. In the case of `O=c1c(O)c(-c2ccc(O)cc2O)oc2cc(O)cc(O)c12`, the inhibition stood at 96.5%. In the case of `O=c1cc(-c2ccc(O)cc2)oc2cc(O)cc(O)c12`, the inhibition came out at 0.7%. Take `O=C1C[C@@H](c2ccc(O)cc2)Oc2cc(O)cc(O)c21`: the inhibition turned out to be 6.3%.

With `COc1ccc([C@@H]2CC(=O)c3c(O)cc(O)cc3O2)cc1O`, the inhibition is 30%.

In the case of `O=c1c(O)c(-c2ccc(O)c(O)c2)oc2cc(O)cc(O)c12`, the inhibition stood at 89.8%.

For `O=c1c(O)c(-c2ccc(O)c(O)c2)oc2cc(O)ccc12`, the inhibition stood at 79%. Next, `COc1cc(-c2oc3cc(O)cc(O)c3c(=O)c2O)cc(O)c1O`: 84.6%; `COc1cccc2c(=O)cc(-c3ccccc3)oc12`: 0.7%; `O=c1c(O)c(-c2ccc(O)cc2)oc2cc(O)cc(O)c12`: 93.5%. Next, `O=c1c(O)c(-c2cc(O)c(O)c(O)c2)oc2cc(O)cc(O)c12`: 72.8%; `O=c1cc(-c2ccccc2)oc2ccccc12`: 1.5%.

With `O=c1c(O)c(-c2cc(O)c(O)c(O)c2)oc2cc(O)ccc12`, the inhibition came out at 82.3%. For `O=c1cc(-c2ccccc2)oc2cc(O)cc(O)c12`, the inhibition was 1.1%.

Take `O=C1CC(c2ccccc2)Oc2ccccc21` (stereo not given): the inhibition worked out at 2.6%. Next, `O=C1c2c(O)cc(O)cc2O[C@H](c2ccc(O)c(O)c2)[C@H]1O`: 94.8%. For the compound `O=c1c(O)c(-c2ccccc2)oc2cc(O)cc(O)c12`, the inhibition stood at 91.8%. Next, `O=c1cc(-c2ccccc2)oc2cc(O)ccc12`: 2.8%; `O=c1cc(-c2ccccc2)oc2cccc(O)c12`: 0.6%. Next, `O=c1c(O)c(-c2ccccc2)oc2ccccc12`: 66%.
